One may read the IC50 as the concentration that gives 50% inhibition.

This note sets out measurements from BindingDB's records for doi:10.1016/j.bmcl.2005.09.022 (Bristol-Myers Squibb Pharmaceutical Research Institute, 2005).

Each structure is given as a SMILES string.

This test addresses C-C chemokine receptor type 4 (Mus musculus) (UniProt P51680). The test can be described thus: Inhibition of chemotaxis of murine CCR4 transfected L1.2 cells.

Chain of C-C chemokine receptor type 4 (Mus musculus) (P51680 whole entry, looked up): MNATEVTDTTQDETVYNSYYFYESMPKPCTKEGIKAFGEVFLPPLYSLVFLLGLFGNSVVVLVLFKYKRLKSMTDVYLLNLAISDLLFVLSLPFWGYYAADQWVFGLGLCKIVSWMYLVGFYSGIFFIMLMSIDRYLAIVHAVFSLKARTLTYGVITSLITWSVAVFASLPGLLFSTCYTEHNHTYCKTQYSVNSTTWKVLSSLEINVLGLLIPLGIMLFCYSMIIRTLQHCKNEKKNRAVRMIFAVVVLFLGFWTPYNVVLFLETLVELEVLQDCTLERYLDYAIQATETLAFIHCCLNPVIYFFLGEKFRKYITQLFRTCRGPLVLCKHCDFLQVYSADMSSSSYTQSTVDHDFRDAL

In the case of `O=C([C@H]1CCCCN1)N1CCN(c2nccc(NCc3ccc(Cl)cc3Cl)n2)CC1` [(R)-(4-(4-(2,4-dichlorobenzylamino)pyrimidin-2-yl)piperazin-1-yl)(piperidin-2-yl)methanone], the IC50 was 380 nM.
